# Measurements reported in patent publication US20120027720A1, “PEPTIDE CONJUGATES” (priority 2008, published 2012).
# Where no end group is shown, it is not given here. [ ]: non-standard residue; d: D form.
# System: IEC6 cells
# Experiment: Real-Time Cell Electronic Sensing (RT-CES, ACEA) assay of cell morphology change
# Type: cell-based
# Set-up: key: + indicates an enhancement of the permeability of the tight junctions were observed; − indicates no enhancement of permeability was observed
# Conditions: peptide at 5 mg/mL
# From the text: Agonists of tight junctions can be identified by their ability to induce changes in morphology of cells in a monolayer of cells that comprise tight junctions. Such changes in the morphology of IEC6 cells may be measured using a Real-Time Cell Electronic Sensing protocol as described below.
# Tight junction agonists can be identified using the following method an used in peptide conjugates of the invention:
# Materials: cells: IEC6 passage 30-50, medium: DMEM 10% no calcium no magnesium, foetal bovine serum 0.1 unit per ml bovine insulin, buffers: phosphate buffered saline (PBS) no calcium no magnesium, trypsin: 0.25% porcine trypsin in HBSS no calcium no magnesium, flasks: 100×20 mm Tissue culture dish Falcon, plates: 16× E-Plate, machine: RT-CES™ 16× system (ACEA Biosciences, Inc., San Diego, Calif.)
# Wash a 75 cm^2 flask of confluent IEC6 cells twice with 25 ml of PBS.
# Add 2.5 ml of trypsin to the flask and place back in the incubator at 37° C.
# Wash cells from the surface of the flask with 10 ml of serum containing media to quench the trypsin.
# Pellet the cells by centrifugation at 1500 rpm for 5 minutes aspirate the media.
# Resuspend the cell pellet in 10 ml of serum free media and centrifuge at 1500 rpm for 5 minutes aspirate the media and repeat for a total of 5 washes.
# Take 100 μl of cells and mix with 100 μl of trypan blue.
# Count the cells four times and use the average cell concentration.
# Dilute the cells to 1×10^6 per ml in serum free media.
# Add 100 μl of serum free media to each well of the ACEA plates to be used.
# Insert the ACEA plate and press scan.
# Run step 1 of the program to measure background.
# Add 50 μl of cells to each well of the ACEA plate tap each slide of the plate 10 times and place the cells on the bench for 15 minutes to allow the cells to settle.
# Insert the ACEA plate and run the scan step to check connections and run step 2-1 and 2-2 overnight.
# Step 2-1 sample every 2 minutes 30 times.
# Step 2-2 sample every 15 minutes 100 times.
# The cell indices should be between 6-10 after the overnight run and should have reached a plateau.
# Remove 100 μl of media carefully from each well.
# Make up the compounds to be tested so that 50 μl contains 2× the desired final concentration.
# Add 50 μl of compounds to the designated wells.
# Scan the plate to check connections.
# Step 3-1 sample every 2 minutes 30 times.
# Step 3-2 sample every 15 minutes 100 times.
row,Substance,ACEA 5 mg/mL
1,25 (L[dR]GICF; not fully specified; printed as Leu-D-Arg-Gly-Ile-Cys-Phe) [compound 25],+
2,24 ([dL]RGICF; not fully specified; printed as D-Leu-Arg-Gly-Ile-Cys-Phe) [compound 24],+
3,10 (FCIGR; also: peptide conjugate) [compound 10],+
4,2 (ACIGRL; not fully specified; printed as Ala-Cys-Ile-Gly-Arg-Leu) [compound 2],+

# System: CaCo2 monolayers
# Experiment: Epithelial flux of Lucifer Yellow through cell monolayer
# Type: cell-based
# Set-up: key to Enhanced LY permeability: + indicates an enhancement of the permeability of the tight junctions were observed; − indicates no enhancement of permeability was observed
# Conditions: Lucifer Yellow flux, Caco-2 monolayer
# In short: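 Caco-2 cells (passage 40-60) grown 21-28 days on Transwell filters, equilibrated 30 min at 37 °C in HBSS-HEPES pH 7.4; Lucifer Yellow with test compound applied apically, n=3 filters. Basolateral samples at 60, 120, 180 min read by fluorescence at 485/535 nm against standard curve; TEER also measured.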
row,Substance,Enhanced LY permeability
1,25 (L[dR]GICF; not fully specified; printed as Leu-D-Arg-Gly-Ile-Cys-Phe) [compound 25],−
2,24 ([dL]RGICF; not fully specified; printed as D-Leu-Arg-Gly-Ile-Cys-Phe) [compound 24],−
3,10 (FCIGR; also: peptide conjugate) [compound 10],+
4,2 (ACIGRL; not fully specified; printed as Ala-Cys-Ile-Gly-Arg-Leu) [compound 2],−

# System: CaCo2 monolayers
# Experiment: Trans Epithelial Electric Resistance (TEER) across cell monolayer
# Type: cell-based
# Set-up: key to Reduced TEER: + indicates an enhancement of the permeability of the tight junctions were observed; − indicates no enhancement of permeability was observed
# Conditions: Caco-2 monolayer
# In short: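 Caco-2 cells, passage 40-60, grown 21-28 days on Transwell filters, equilibrated 30 min at 37° C in MHBSS pH 7.4. Test compound with Lucifer Yellow applied apically (n=3), incubated at 37° C with 50 RPM shaking; TEER measured at baseline and at 30, 60, 120 and 180 min.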
row,Substance,Reduced TEER
1,25 (L[dR]GICF; not fully specified; printed as Leu-D-Arg-Gly-Ile-Cys-Phe) [compound 25],−
2,24 ([dL]RGICF; not fully specified; printed as D-Leu-Arg-Gly-Ile-Cys-Phe) [compound 24],−
3,10 (FCIGR; also: peptide conjugate) [compound 10],+
4,2 (ACIGRL; not fully specified; printed as Ala-Cys-Ile-Gly-Arg-Leu) [compound 2],−
